These compounds were tested against T1, human p38 kinase alpha (Homo sapiens, UniProt Q16539) (assay: p38 kinase in vitro assay, phosphorylation of biotinylated PHAS-I with 32P-ATP). Conditions: @ 10.0 uM.
T1 construct: GST (N, cleaved yes); made in house; host or cells: E. coli DH10B
T1 sequence (Q16539 whole entry): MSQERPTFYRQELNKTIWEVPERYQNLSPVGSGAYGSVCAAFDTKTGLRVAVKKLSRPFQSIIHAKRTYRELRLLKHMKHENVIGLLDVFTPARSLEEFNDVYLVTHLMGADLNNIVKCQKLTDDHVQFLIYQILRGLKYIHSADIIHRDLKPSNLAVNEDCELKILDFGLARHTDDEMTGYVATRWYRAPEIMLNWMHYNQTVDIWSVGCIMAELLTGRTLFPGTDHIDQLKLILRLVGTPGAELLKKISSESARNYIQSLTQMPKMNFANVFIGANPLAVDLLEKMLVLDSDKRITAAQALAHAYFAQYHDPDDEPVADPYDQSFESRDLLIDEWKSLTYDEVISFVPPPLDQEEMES
Assay type: biochemical
For `CCCCC(C)NC(=O)Cn1nc(-c2ccc(F)cc2)c(-c2ccncc2)c1C` (centres unmarked) [Example B-2319], the “P38 alpha kinase % inhib @ conc.” value was 75.0% @.
In the case of `Cc1c(-c2ccncc2)c(-c2ccc(F)cc2)nn1CC(=O)NC(Cc1ccccc1)c1ccccc1` (centres unmarked) [Example B-2320], the “P38 alpha kinase % inhib @ conc.” value is reported as 44.0% @.
In the case of `Cc1c(-c2ccncc2)c(-c2ccc(F)cc2)nn1CC(=O)NC1Cc2ccccc2C1` [Example B-2321], the “P38 alpha kinase % inhib @ conc.” value is reported as 69.0% @.
With `Cc1c(-c2ccncc2)c(-c2ccc(F)cc2)nn1CC(=O)NC1CCSC1=O` (centres unmarked) [Example B-2323] the “P38 alpha kinase % inhib @ conc.” value was 69.0% @.
With `COCC(C)NC(=O)Cn1nc(-c2ccc(F)cc2)c(-c2ccncc2)c1C` (centres unmarked) [Example B-2325] the “P38 alpha kinase % inhib @ conc.” value was 60.0% @.
For `Cc1c(-c2ccncc2)c(-c2ccc(F)cc2)nn1CC(=O)NC1CCCc2ccccc21` (centres unmarked) [Example B-2326], the “P38 alpha kinase % inhib @ conc.” value was 76.0% @.
With `CCOC(=O)N1CCC(NC(=O)Cn2nc(-c3ccc(F)cc3)c(-c3ccncc3)c2C)CC1` [Example B-2329] the “P38 alpha kinase % inhib @ conc.” value was 72.0% @.
For `Cc1c(-c2ccncc2)c(-c2ccc(F)cc2)nn1CC(=O)NC1CCC1` [Example B-2330], the “P38 alpha kinase % inhib @ conc.” value was 81.0% @.
`Cc1c(-c2ccncc2)c(-c2ccc(F)cc2)nn1CC(=O)NC(C)c1cccc2ccccc12` (centres unmarked) [Example B-2331] was tested, and the “P38 alpha kinase % inhib @ conc.” value was 74.0% @.
For `Cc1c(-c2ccncc2)c(-c2ccc(F)cc2)nn1CC(=O)NC1CCN(Cc2ccccc2)CC1` [Example B-2332], the “P38 alpha kinase % inhib @ conc.” value was 70.0% @.
For `Cc1c(-c2ccncc2)c(-c2ccc(F)cc2)nn1CC(=O)NC1CCCCCC1` [Example B-2335], the “P38 alpha kinase % inhib @ conc.” value was 82.0% @.
In the case of `CCN(CC)CC(C)NC(=O)Cn1nc(-c2ccc(F)cc2)c(-c2ccncc2)c1C` (centres unmarked) [Example B-2337], the “P38 alpha kinase % inhib @ conc.” value is reported as 46.0% @.
For `Cc1c(-c2ccncc2)c(-c2ccc(F)cc2)nn1CC(=O)NC1CCN(Cc2ccccc2)C1` (centres unmarked) [Example B-2338], the “P38 alpha kinase % inhib @ conc.” value was 73.0% @.
With `Cc1c(-c2ccncc2)c(-c2ccc(F)cc2)nn1CC(=O)NC(C)CCc1ccccc1` (centres unmarked) [Example B-2340] the “P38 alpha kinase % inhib @ conc.” value was 35.0% @.
With `Cc1c(-c2ccncc2)c(-c2ccc(F)cc2)nn1CC(=O)NC1CC1` [Example B-2341] the “P38 alpha kinase % inhib @ conc.” value was 75.0% @.
`CCOC(=O)CC(C)NC(=O)Cn1nc(-c2ccc(F)cc2)c(-c2ccncc2)c1C` (centres unmarked) [Example B-2343] was tested, and the “P38 alpha kinase % inhib @ conc.” value was 43.0% @.
With `Cc1c(-c2ccncc2)c(-c2ccc(F)cc2)nn1CC(=O)NC(C)c1ccc(Br)cc1` (centres unmarked) [Example B-2344] the “P38 alpha kinase % inhib @ conc.” value was 71.0% @.
For `Cc1c(-c2ccncc2)c(-c2ccc(F)cc2)nn1CC(=O)NC1CCCCC1C1CCCCC1` (centres unmarked) [Example B-2346], the “P38 alpha kinase % inhib @ conc.” value was 45.0% @.
With `Cc1c(-c2ccncc2)c(-c2ccc(F)cc2)nn1CC(=O)NC1CCCCC1` [Example B-2347] the “P38 alpha kinase % inhib @ conc.” value was 49.0% @.
`Cc1c(-c2ccncc2)c(-c2ccc(F)cc2)nn1CC(=O)NC1CCSc2ccccc21` (centres unmarked) [Example B-2348] was tested, and the “P38 alpha kinase % inhib @ conc.” value was 76.0% @.
In the case of `COC(=O)C(Cc1ccc([N+](=O)[O-])cc1)NC(=O)Cn1nc(-c2ccc(F)cc2)c(-c2ccncc2)c1C` (centres unmarked) [Example B-2349], the “P38 alpha kinase % inhib @ conc.” value is reported as 75.0% @.
With `Cc1c(-c2ccncc2)c(-c2ccc(F)cc2)nn1CC(=O)NC1CCC(C(C)(C)C)CC1` (centres unmarked) [Example B-2350] the “P38 alpha kinase % inhib @ conc.” value was 38.0% @.
For `CCOC(=O)CC(NC(=O)Cn1nc(-c2ccc(F)cc2)c(-c2ccncc2)c1C)C(=O)OCC` (centres unmarked) [Example B-2352], the “P38 alpha kinase % inhib @ conc.” value was 37.0% @.
`CC[C@H](C)[C@H](NC(=O)Cn1nc(-c2ccc(F)cc2)c(-c2ccncc2)c1C)C(=O)OC` [Example B-2353] was tested, and the “P38 alpha kinase % inhib @ conc.” value was 38.0% @.
`Cc1c(-c2ccncc2)c(-c2ccc(F)cc2)nn1CC(=O)NC1CCN(CCc2c[nH]c3ccccc23)CC1` [Example B-2355] was tested, and the “P38 alpha kinase % inhib @ conc.” value was 84.0% @.
With `CCCC(CCC)NC(=O)Cn1nc(-c2ccc(F)cc2)c(-c2ccncc2)c1C` [Example B-2356] the “P38 alpha kinase % inhib @ conc.” value was 77.0% @.
`CCN1CC(NC(=O)Cn2nc(-c3ccc(F)cc3)c(-c3ccncc3)c2C)CN1CC` [Example B-2357] was tested, and the “P38 alpha kinase % inhib @ conc.” value was 47.0% @.
`CCCN(CCC)CC(C)NC(=O)Cn1nc(-c2ccc(F)cc2)c(-c2ccncc2)c1C` (centres unmarked) [Example B-2358] was tested, and the “P38 alpha kinase % inhib @ conc.” value was 17.0% @.
For `COC(=O)[C@H](COCc1ccccc1)NC(=O)Cn1nc(-c2ccc(F)cc2)c(-c2ccncc2)c1C` [Example B-2359], the “P38 alpha kinase % inhib @ conc.” value was 76.0% @.
`COC(=O)C(Cc1cn(C)cn1)NC(=O)Cn1nc(-c2ccc(F)cc2)c(-c2ccncc2)c1C` (centres unmarked) [Example B-2361] was tested, and the “P38 alpha kinase % inhib @ conc.” value was 19.0% @.
With `COC(=O)[C@H](CC(C)C)NC(=O)Cn1nc(-c2ccc(F)cc2)c(-c2ccncc2)c1C` [Example B-2364] the “P38 alpha kinase % inhib @ conc.” value was 47.0% @.
With `COC(=O)C(NC(=O)Cn1nc(-c2ccc(F)cc2)c(-c2ccncc2)c1C)C(C)C` (centres unmarked) [Example B-2365] the “P38 alpha kinase % inhib @ conc.” value was 82.0% @.
In the case of `Cc1c(-c2ccncc2)c(-c2ccc(F)cc2)nn1CC(=O)N1CCOCC1` [Example B-2366], the “P38 alpha kinase % inhib @ conc.” value is reported as 70.0% @.
With `CCN(Cc1c(F)cccc1Cl)C(=O)Cn1nc(-c2ccc(F)cc2)c(-c2ccncc2)c1C` [Example B-2367] the “P38 alpha kinase % inhib @ conc.” value was 46.0% @.
In the case of `CCN1CCN(C(=O)Cn2nc(-c3ccc(F)cc3)c(-c3ccncc3)c2C)CC1` [Example B-2368], the “P38 alpha kinase % inhib @ conc.” value is reported as 65.0% @.
`COCCN(C)C(=O)Cn1nc(-c2ccc(F)cc2)c(-c2ccncc2)c1C` [Example B-2374] was tested, and the “P38 alpha kinase % inhib @ conc.” value was 35.0% @.
For `Cc1c(-c2ccncc2)c(-c2ccc(F)cc2)nn1CC(=O)N(C)CCc1ccccc1` [Example B-2376], the “P38 alpha kinase % inhib @ conc.” value was 32.0% @.
In the case of `Cc1c(-c2ccncc2)c(-c2ccc(F)cc2)nn1CC(=O)N(Cc1ccco1)CC(C)C` [Example B-2378], the “P38 alpha kinase % inhib @ conc.” value is reported as 48.0% @.
`Cc1c(-c2ccncc2)c(-c2ccc(F)cc2)nn1CC(=O)N1CCSC1` [Example B-2383] was tested, and the “P38 alpha kinase % inhib @ conc.” value was 63.0% @.
With `Cc1c(-c2ccncc2)c(-c2ccc(F)cc2)nn1CC(=O)N(C)CCc1ccncc1` [Example B-2386] the “P38 alpha kinase IC50, uM or % inhib @ conc. (uM): % inhib” value (“P38 alpha kinase IC50 … % inhib” for short) was 38.0% @.
In the case of `CCOC(=O)CN(Cc1ccccn1)C(=O)Cn1nc(-c2ccc(F)cc2)c(-c2ccncc2)c1C` [Example B-2390], the “P38 alpha kinase IC50 … % inhib” value is reported as 34.0% @.
For `CCN(CC)C1CCN(C(=O)Cn2nc(-c3ccc(F)cc3)c(-c3ccncc3)c2C)C1` (centres unmarked) [Example B-2391], the “P38 alpha kinase IC50 … % inhib” value was 40.0% @.
`COCCN(CC1CCCCC1)C(=O)Cn1nc(-c2ccc(F)cc2)c(-c2ccncc2)c1C` [Example B-2392] was tested, and the “P38 alpha kinase IC50 … % inhib” value was 63.0% @.
With `Cc1c(-c2ccncc2)c(-c2ccc(F)cc2)nn1CC(=O)N(C)CC(N)=O` [Example B-2400] the “P38 alpha kinase IC50 … % inhib” value was 60.0% @.
`Cc1c(-c2ccncc2)c(-c2ccc(F)cc2)nn1CC(=O)N1CCCCC1` [Example B-2401] was tested, and the “P38 alpha kinase IC50 … % inhib” value was 78.0% @.
`Cc1c(-c2ccncc2)c(-c2ccc(F)cc2)nn1CC(=O)N(CCc1ccccc1)CCc1ccccn1` [Example B-2402] was tested, and the “P38 alpha kinase IC50 … % inhib” value was 43.0% @.
`Cc1c(-c2ccncc2)c(-c2ccc(F)cc2)nn1CC(=O)N1CCSC1c1ccco1` (centres unmarked) [Example B-2409] was tested, and the “P38 alpha kinase IC50 … % inhib” value was 78.0% @.
For `Cc1c(-c2ccncc2)c(-c2ccc(F)cc2)nn1CC(=O)N1Cc2ccsc2CC1c1ccc(Cl)cc1` (centres unmarked) [Example B-2410], the “P38 alpha kinase IC50 … % inhib” value was 33.0% @.
In the case of `Cc1c(-c2ccncc2)c(-c2ccc(F)cc2)nn1CC(=O)N1CCC(N(C)C(=O)OC(C)(C)C)C1` (centres unmarked) [Example B-2413], the “P38 alpha kinase IC50 … % inhib” value is reported as 75.0% @.
For `COc1ccc2nc(NC(=O)Cn3nc(-c4ccc(F)cc4)c(-c4ccncc4)c3C)sc2c1` [Example B-2414], the “P38 alpha kinase IC50 … % inhib” value was 86.0% @.

Same assay, conditions: @ 100.0 uM
For `Cc1c(-c2ccncc2)c(-c2ccc(F)cc2)nn1CC(=O)N(C)Cc1ccccc1` [Example B-2370], the “P38 alpha kinase % inhib @ conc.” value was 73% @.
`Cc1c(-c2ccncc2)c(-c2ccc(F)cc2)nn1CC(=O)N1CCCC1` [Example B-2379] was tested, and the “P38 alpha kinase % inhib @ conc.” value was 73.0% @.
For `CC(=O)N1CCN(C(=O)Cn2nc(-c3ccc(F)cc3)c(-c3ccncc3)c2C)CC1` [Example B-2380], the “P38 alpha kinase % inhib @ conc.” value was 81% @.
`COc1ccc(CCN(CCC#N)C(=O)Cn2nc(-c3ccc(F)cc3)c(-c3ccncc3)c2C)cc1OC` [Example B-2403] was tested, and the “P38 alpha kinase IC50 … % inhib” value was 72% @.
For `Cc1c(-c2ccncc2)c(-c2ccc(F)cc2)nn1CC(=O)N(CCC#N)CC1CCCO1` (centres unmarked) [Example B-2404], the “P38 alpha kinase IC50 … % inhib” value was 58% @.
`CCN(CC)CCN(CCN(CC)CC)C(=O)Cn1nc(-c2ccc(F)cc2)c(-c2ccncc2)c1C` [Example B-2407] was tested, and the “P38 alpha kinase IC50 … % inhib” value was 47% @.

Same assay, conditions: in vitro P38-alpha kinase; read-out: P38 alpha kinase IC50
`Cc1c(-c2ccncc2)c(-c2ccc(F)cc2)nn1CC(=O)NCCCN(C)C` [Example B-2304] showed an IC50 of 1410 nM.
For `COc1cc(CNC(=O)Cn2nc(-c3ccc(F)cc3)c(-c3ccncc3)c2C)cc(OC)c1` [Example B-2305], the IC50 was 540 nM.
Compound `Cc1c(-c2ccncc2)c(-c2ccc(F)cc2)nn1CC(=O)NCCCSC1CCCCC1` [Example B-2306] has an IC50 of 5880 nM.
`Cc1c(-c2ccncc2)c(-c2ccc(F)cc2)nn1CC(=O)NCCCN1CCCC1` [Example B-2307] was tested, and the IC50 was 2290 nM.
In the case of `Cc1c(-c2ccncc2)c(-c2ccc(F)cc2)nn1CC(=O)NCCc1csc2ccccc12` [Example B-2308], the IC50 is reported as 660 nM.
`Cc1c(-c2ccncc2)c(-c2ccc(F)cc2)nn1CC(=O)NCC(=O)OC(C)(C)C` [Example B-2309] showed an IC50 of 290 nM.
`CCNC(=O)Cn1nc(-c2ccc(F)cc2)c(-c2ccncc2)c1C` [Example B-2311] was tested, and the IC50 was 7180 nM.
For `CCSCCNC(=O)Cn1nc(-c2ccc(F)cc2)c(-c2ccncc2)c1C` [Example B-2312], the IC50 was 2930 nM.
`Cc1c(-c2ccncc2)c(-c2ccc(F)cc2)nn1CC(=O)NCCCOC(C)C` [Example B-2313] gave an IC50 of 42300 nM.
Compound `Cc1c(-c2ccncc2)c(-c2ccc(F)cc2)nn1CC(=O)NCCC#N` [Example B-2314] has an IC50 of 11000 nM.
Work on `Cc1c(-c2ccncc2)c(-c2ccc(F)cc2)nn1CC(=O)NCCC1=CCCCC1` [Example B-2316] yielded an IC50 of 460 nM.
`Cc1c(-c2ccncc2)c(-c2ccc(F)cc2)nn1CC(=O)NCC(=O)c1ccccc1` [Example B-2317] gave an IC50 of 1000 nM.

Reference: patent US6979686B1, “Substituted pyrazoles as p38 kinase inhibitors” (Pharmacia Corporation, priority 2001, dated 2005)
